# According to patent publication US20260015332A1, “SYNTHESIS METHOD AND APPLICATION OF BENZOTHIASELENAZOLE-1-OXIDE COMPOUND AND DERIVATIVE THEREOF” (priority 2022, published 2026):
# Molecular target: M^pro protein of SARS-CoV-2 (3CLpro, P132H mutation) (Severe acute respiratory syndrome coronavirus 2, UniProt P0DTD1, P3395H)
# Type: biochemical
smiles,measurement,value
"O=S1(c2ccccc2)=N[Se]c2ccccc21 (stereo not shown) [Compound 1, 1-phenylbenzo[d][1,3,2]thiaselenazole-1-ketone]",inhibitory activity against the M^pro protein of SARS-CoV-2 compared with ebselen (EBS) control,superior to that of the ebselen (EBS) control group
